Values of other authors as cited in US7968712B2, “Process for the resolution of zopiclone and intermediate compounds” (Esteve Quimica, S.A., priority 2007, dated 2011).

Tests used:
[1] = compared with racemic zopiclone
[2] = compared with racemic zopiclone; remark: listed apart in the source

## CN1CCN(C(=O)O[C@@H]2c3nccnc3C(=O)N2c2ccc(Cl)cn2)CC1 (single isomer, unassigned) [laevorotatory isomer]
[1]
  toxicity relative to the racemate: more toxic than the racemate
[2]
  activity relative to the racemate: almost inactive

## CN1CCN(C(=O)O[C@H]2c3nccnc3C(=O)N2c2ccc(Cl)cn2)CC1 [dextrorotatory enantiomer, eszopiclone]
[1]
  toxicity relative to the racemate: lower toxicity than that of the racemate
